# Columns and labels:
# [1] = target: Apoptosis regulator Bcl-2 (Homo sapiens, UniProt P10415); assay: Displacement of Flu-Bid from human recombinant Bcl2 receptor
# Bcl-2-like protein 1 = Bcl-2-like protein 1 (Homo sapiens, UniProt Q07817); assay: Displacement of Flu-Bid from human recombinant Bcl-xL receptor
# Sequence of Bcl-2-like protein 1 (Q07817 whole entry): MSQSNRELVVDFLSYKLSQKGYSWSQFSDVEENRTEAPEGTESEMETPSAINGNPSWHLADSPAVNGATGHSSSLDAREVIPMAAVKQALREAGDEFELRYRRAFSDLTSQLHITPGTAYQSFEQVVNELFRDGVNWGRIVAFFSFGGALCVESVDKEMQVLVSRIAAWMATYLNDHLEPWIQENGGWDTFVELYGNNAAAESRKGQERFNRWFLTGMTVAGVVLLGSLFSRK
# Sequence of Apoptosis regulator Bcl-2 (P10415 whole entry): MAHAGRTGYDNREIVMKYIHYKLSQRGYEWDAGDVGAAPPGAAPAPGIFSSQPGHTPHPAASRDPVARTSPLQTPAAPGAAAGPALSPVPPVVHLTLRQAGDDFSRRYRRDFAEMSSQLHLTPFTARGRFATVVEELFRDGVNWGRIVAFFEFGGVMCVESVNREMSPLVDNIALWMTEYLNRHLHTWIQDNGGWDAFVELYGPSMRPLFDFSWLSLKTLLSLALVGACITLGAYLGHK
smiles,measurement,setting,value
CC(C)(C)C[C@H]1N[C@@H](C(=O)NCCN2CCOCC2)[C@H](c2cccc(Cl)c2F)[C@@]12C(=O)Nc1cc(Cl)ccc12,IC50,[1],> 50 µM
same,IC50,Bcl-2-like protein 1,> 50 µM

# From ChEMBL document CHEMBL1148527, “Structure-based design of spiro-oxindoles as potent, specific small-molecule inhibitors of the MDM2-p53 interaction” (J Med Chem, 2006)
